Legend:
Type in all cases: physicochemical
[1] = Variable temperature XRPD (heating under nitrogen protection, XRPD after cooling)
Experimental: (§1) Instruments and Experimental Conditions Used in the Example • 1. Differential Scanning Calorimeter, DSC • Instrument model: Mettler Toledo DSC3+Stare e System • Purge gas: nitrogen (50 mL/min) • Ramping rate: 10.0° C./min • Temperature range: 20-250° C. • 2. X-Ray Powder Diffraction, XRPD • Instrument model: Rigaku UltimalV X-ray powder diffractometer • Ray: monochromatic Cu—Kα ray (λ=1.5418 Å) • Scanning mode: θ/2θ, scanning range: 3-45° • Voltage: 40 kV, current: 40 mA • 3. Thermogravimetric Analysis, TGA • Instrument model: Mettler Toledo TGA2STAR eSystem • Purge gas: nitrogen • Ramping rate: 10.0° C./min • Temperature range: 20-250° C. • 4. Dynamic Vapour Sorption, DVS • Instrument model: TAQ5000VSA • Temperature: 25° C. • Solvent: water • Humidity change: 0-95-0-95-0% RH, step by 10%, less than 0.01% of mass change within […] as the judging standard • 4. HPLC Method • Instrument model: Agilent 1100 with VWD detector • Columns: poroshell 120 EC C18, 3.0 mm/50 mm/2.7 μm • Mobile phase: A: 0.03% NH4OH (25%~28%) in water • B: 0.03% NH4OH (25%~28%) in acetonitrile
The crystalline form A of Compound 1 was placed under nitrogen protection and heated to different temperatures (30° C., 92° C., 118° C., 132° C. and 175° C., respectively), then subjected to XRPD test after it was cooled.
The crystalline form B of Compound 1 was placed under nitrogen protection and heated to different temperatures (130° C. and 180° C., respectively), then subjected to XRPD test after it was cooled to room temperature.
The crystalline form C of Compound 1 was placed under nitrogen protection and heated to different temperatures (130° C. and 160° C., respectively), then subjected to XRPD test after it was cooled to room temperature.
The crystalline form D of Compound 1 was placed under nitrogen protection and heated to different temperatures (100° C. and 160° C., respectively), then subjected to XRPD test after it was cooled to room temperature.
The crystalline form E of Compound 1 was placed under nitrogen protection and heated to different temperatures (96° C. and 180° C., respectively), then subjected to XRPD test after it was cooled to room temperature.

[2] = Stability investigation of the crystalline form A (placement under temperature/humidity, XRPD and HPLC); settings: for Crystalline form change: XRPD; for HPLC purity initial: before placement
Experimental: as §1
• Mobile Phase Flow Rate: 1.0 mL/min • Run time: 10.0 min • Injection volume: 2 μL • Detecting wavelength: UV, 254 nm • Column temperature: 25° C. • Injector temperature: RT • Diluent: acetonitrile:water=1:1 (v:v)
The crystalline form A of Compound 1 was placed under 60° C./closed condition for 24 hours, under 25° C./60% RH and 40° C./75% RH in an open state for one week, respectively. The physical and chemical stability of the sample was detected by XRPD and HPLC.

[3] = DVS hygroscopicity test
Experimental: as §1
Hygroscopicity of the crystalline form A of Compound 1 was evaluated by DVS test.

[4] = heated to 160° C. under nitrogen
[5] = heated to 130° C. under nitrogen
[6] = 40° C./75% RH, 1 week, open state
[7] = heated to 180° C. under nitrogen

## Nc1nccc(Sc2cnc(N3CCC4(CC3)Cc3ncccc3[C@H]4N)n3ccnc23)c1Cl [crystalline form D, (S)-1′-(8-((2-amino-3-chloropyridin-4-yl)thio)imidazo[1,2-c]pyrimidin-5-yl)-5,7-dihydrospiro[cyclopentadieno[b]pyridine-6,4′-piperidine]-5-amine]
[1]; heated to 100° C. under nitrogen
  crystalline form after heating and cooling to room temperature: crystallinity was significantly reduced
[1]; [4]
  crystalline form after heating and cooling to room temperature: diffraction signal of the crystalline form A is observed

## Nc1nccc(Sc2cnc(N3CCC4(CC3)Cc3ncccc3[C@H]4N)n3ccnc23)c1Cl [crystalline form C, (S)-1′-(8-((2-amino-3-chloropyridin-4-yl)thio)imidazo[1,2-c]pyrimidin-5-yl)-5,7-dihydrospiro[cyclopentadieno[b]pyridine-6,4′-piperidine]-5-amine]
[1]; [5]
  crystalline form after heating and cooling to room temperature: converted into an amorphous form
[1]; [4]
  crystalline form after heating and cooling to room temperature: converted to the crystalline form A

## Nc1nccc(Sc2cnc(N3CCC4(CC3)Cc3ncccc3[C@H]4N)n3ccnc23)c1Cl [crystalline form A, (S)-1′-(8-((2-amino-3-chloropyridin-4-yl)thio)imidazo[1,2-c]pyrimidin-5-yl)-5,7-dihydrospiro[cyclopentadieno[b]pyridine-6,4′-piperidine]-5-amine]
[2]; 25° C./60% RH, 1 week
  HPLC purity After placement: 97.99 area %
  HPLC purity Relative to initial: 99.6%
  Crystalline form change: no crystalline form change
[2]; 25° C./60% RH, 1 week, listed as Crystalline form A
  Crystalline form change: no
[2]; [6]
  HPLC purity After placement: 97.89 area %
  HPLC purity Relative to initial: 99.5%
  Crystalline form change: only part of crystalline form A was converted to hydrate crystalline form B
[2]; 40° C./75% RH, 1 week, open state, listed as Crystalline form A
  Crystalline form change: yes
[2]; 60° C./closed, 24 hours
  HPLC purity After placement: 98.55 area %
  HPLC purity Relative to initial: 99.9%
  Crystalline form change: no crystalline form change
[2]; 60° C./closed, 24 hours, listed as Crystalline form A
  Crystalline form change: no
[2]; all three stability test conditions
  chemical stability (HPLC): good chemical stability
[2]; all three stability test conditions (25° C./60% RH 1 week, 40° C./75% RH 1 week, 60° C./closed 24 hours)
  purity maintained after placement (HPLC): about 98%
[2]; sample of the 25° C./60% RH and 40° C./75% RH 1 week tests
  HPLC purity initial: 98.41 area %
[2]; sample of the 60° C./closed 24 hours test
  HPLC purity initial: 98.60 area %
[2]; conclusion from Examples 1.67 and 1.68
  stability (overall conclusion of the stability investigation): excellent stability
[3]; DVS, 80.0% RH, 25° C.
  weight gain of moisture absorption: 1.88%
[3]; DVS, judged from weight gain at 80.0% RH
  hygroscopicity: slight hygroscopicity
[3]; XRPD before and after DVS
  crystalline form before and after DVS test (XRPD): consistent
[1]; heated to 30° C., 92° C., 118° C., 132° C. and 175° C. under nitrogen, XRPD after cooling
  crystalline form change during heating: no crystalline form change

## Nc1nccc(Sc2cnc(N3CCC4(CC3)Cc3ncccc3[C@H]4N)n3ccnc23)c1Cl [crystalline form B, (S)-1′-(8-((2-amino-3-chloropyridin-4-yl)thio)imidazo[1,2-c]pyrimidin-5-yl)-5,7-dihydrospiro[cyclopentadieno[b]pyridine-6,4′-piperidine]-5-amine]
[1]; [5]
  crystalline form after heating and cooling to room temperature: converted into an amorphous form
[1]; [7]
  crystalline form after heating and cooling to room temperature: converted to the crystalline form A

## Nc1nccc(Sc2cnc(N3CCC4(CC3)Cc3ncccc3[C@H]4N)n3ccnc23)c1Cl [crystalline form E, (S)-1′-(8-((2-amino-3-chloropyridin-4-yl)thio)imidazo[1,2-c]pyrimidin-5-yl)-5,7-dihydrospiro[cyclopentadieno[b]pyridine-6,4′-piperidine]-5-amine]
[1]; heated to 96° C. under nitrogen
  crystalline form after heating and cooling to room temperature: a small amount of diffraction signal of the crystalline form A is observed
[1]; [7]
  crystalline form after heating and cooling to room temperature: completely converted to the crystalline form A
